Columns and labels:
Format in all cases: functional
[1] = tested on: NCI-H1792; assay: Cytotoxicity against human NCI-H1792 cells harboring KRASG12C mutant assessed as reduction in cell viability measured after 72 hrs in presence of compound 1 by CellTiter-Glo luciferase-based ATP detection assay; conditions: NCI-H1792, 72 h
[2] = tested on: NCI-H358; assay: Cytotoxicity against human NCI-H358 cells harboring KRASG12C mutant assessed as reduction in cell viability measured after 72 hrs in presence of compound 1 by CellTiter-Glo luciferase-based ATP detection assay; conditions: NCI-H358, 72 h
[3] = tested on: NCI-H23; assay: Cytotoxicity against human NCI-H23 cells harboring KRAS G12C mutant assessed as reduction in cell viability measured after 72 hrs by CellTiter-Glo luciferase-based ATP detection assay; conditions: NCI-H23, 72 h
[4] = tested on: NCI-H1373; assay: Cytotoxicity against human NCI-H1373 cells harboring KRASG12C mutant assessed as reduction in cell viability measured after 72 hrs in presence of compound 1 by CellTiter-Glo luciferase-based ATP detection assay; conditions: NCI-H1373, 72 h
[5] = tested on: NCI-H23; assay: Cytotoxicity against human NCI-H23 cells harboring KRASG12C mutant assessed as reduction in cell viability measured after 72 hrs in presence of compound 1 by CellTiter-Glo luciferase-based ATP detection assay; conditions: NCI-H23, 72 h
[6] = tested on: NCI-H2122; assay: Cytotoxicity against human NCI-H2122 cells harboring KRASG12C mutant assessed as reduction in cell viability measured after 72 hrs in presence of compound 1 by CellTiter-Glo luciferase-based ATP detection assay; conditions: NCI-H2122, 72 h
[7] = tested on: NCI-H358; assay: Cytotoxicity against human NCI-H358 cells harboring KRAS G12C mutant assessed as reduction in cell viability measured after 72 hrs by CellTiter-Glo luciferase-based ATP detection assay; conditions: NCI-H358, 72 h
[8] = tested on: NCI-H1792; assay: Cytotoxicity against human NCI-H1792 cells harboring KRAS G12C mutant assessed as reduction in cell viability measured after 72 hrs by CellTiter-Glo luciferase-based ATP detection assay; conditions: NCI-H1792, 72 h
[9] = tested on: NCI-H1373; assay: Cytotoxicity against human NCI-H1373 cells harboring KRAS G12C mutant assessed as reduction in cell viability measured after 72 hrs by CellTiter-Glo luciferase-based ATP detection assay; conditions: NCI-H1373, 72 h
[10] = tested on: NCI-H2122; assay: Cytotoxicity against human NCI-H2122 cells harboring KRAS G12C mutant assessed as reduction in cell viability measured after 72 hrs by CellTiter-Glo luciferase-based ATP detection assay; conditions: NCI-H2122, 72 h

SMILES	IC50 [1] [nM]	IC50 [2] [nM]	IC50 [3] [nM]	IC50 [4] [nM]	IC50 [5] [nM]	IC50 [6] [nM]	IC50 [7] [nM]	IC50 [8] [nM]	IC50 [9] [nM]	IC50 [10] [nM]
C=CC(=O)N1CCN(c2nc(=O)n(-c3c(C)ccnc3C(C)C)c3nc(-c4c(O)cccc4F)c(F)cc23)[C@@H](C)C1 [SOTORASIB]	3000	3	> 10000	356	1500	90.5	213	> 10000	> 10000	–
C[C@H]1CNC(=O)c2cnn3ccc(nc23)N[C@H](C)c2cc(F)ccc2O1 [REPOTRECTINIB]	–	–	4060	–	–	–	2500	1900	5000	1940

Source: ChEMBL document CHEMBL4825770, “KRAS Mutant Combination Therapy for the Effective Treatment of Cancer” (ACS Med Chem Lett, 2021)
